Activity calls are given as the source filed them. No cut-off for these calls is given here.
Experiments:
[1] = tested on: Agrobacterium tumefaciens; assay: Antitumor activity against Agrobacterium tumefaciens B6-induced crown-gall tumor formation in potato assessed as tumor induction at 25 ug/disk after 12 days at 27 degC by potato disk assay relative to control; assay type: functional
[2] = tested on: Agrobacterium tumefaciens; assay: Antitumor activity against Agrobacterium tumefaciens B6-induced crown-gall tumor formation in potato assessed as tumor induction at 50 ug/disk after 12 days at 27 degC by potato disk assay relative to control; assay type: functional
[3] = tested on: Agrobacterium tumefaciens; assay: Antitumor activity against Agrobacterium tumefaciens B6-induced crown-gall tumor formation in potato assessed as tumor induction at 10 ug/disk after 12 days at 27 degC by potato disk assay relative to control; assay type: functional
Curvularia lunata = assay: Antifungal activity against Curvularia lunata at 50 to 500 ug/disk by paper-disk-plate technique; assay type: functional, organism-based
[4] = tested on: Agrobacterium tumefaciens; assay: Antibacterial activity against Agrobacterium tumefaciens at 50 to 500 ug/disk by paper-disk-plate technique; assay type: functional, organism-based
Escherichia coli = assay: Antibacterial activity against Escherichia coli at 50 to 500 ug/disk by paper-disk-plate technique; assay type: functional, organism-based
Aspergillus flavus = assay: Antifungal activity against Aspergillus flavus at 50 to 500 ug/disk by paper-disk-plate technique; assay type: functional, organism-based
Bacillus cereus = assay: Antibacterial activity against Bacillus cereus at 50 to 500 ug/disk by paper-disk-plate technique; assay type: functional, organism-based
Citrobacter freundii = assay: Antibacterial activity against Citrobacter freundii at 50 to 500 ug/disk by paper-disk-plate technique; assay type: functional, organism-based
[5] = tested on: Brochothrix thermosphacta; assay: Antibacterial activity against Microbacterium thermosphactum at 50 to 500 ug/disk by paper-disk-plate technique; assay type: functional, organism-based
Enterobacter cloacae = assay: Antibacterial activity against Enterobacter cloacae at 50 to 500 ug/disk by paper-disk-plate technique; assay type: functional, organism-based
Chaetomium = assay: Antifungal activity against Chaetomium at 50 to 500 ug/disk by paper-disk-plate technique; assay type: functional, organism-based
Bacillus subtilis = assay: Antibacterial activity against Bacillus subtilis at 50 to 500 ug/disk by paper-disk-plate technique; assay type: functional, organism-based
[6] = tested on: Agrobacterium tumefaciens; assay: Antitumor activity against Agrobacterium tumefaciens B6-induced crown-gall tumor formation in potato assessed as tumor induction at 5 ug/disk after 12 days at 27 degC by potato disk assay relative to control; assay type: functional

CCCCCC[C@@H]1O[C@]23O[C@H]1CC[C@H]2[C@@H](O)CC[C@H]3O [KONINGININ A]
Activity [1]: 75%

CC[C@@]1(O)C(=O)OCc2c1cc1n(c2=O)Cc2cc3ccccc3nc2-1 [CAMPTOTHECIN]
Activity [1]: -100%

CC[C@H]1C2[C@H]([C@@H](C)c3c[nH]c4ccccc34)NC(=O)[C@@]23C(=O)/C=C\C(=O)[C@H](O)/C(C)=C\[C@@H](C)C/C=C/[C@H]3[C@@H]2O[C@]12C (some centres undefined) [CHAETOGLOBOSIN K]
Activity [2]: -100% | Activity [3]: -97% | Activity (Curvularia lunata): inactive | Activity [4]: inactive | Activity (Escherichia coli): inactive | Activity (Aspergillus flavus): inactive | Activity (Bacillus cereus): inactive | Activity (Citrobacter freundii): inactive | Activity [5]: inactive | Activity (Enterobacter cloacae): inactive | Activity (Chaetomium): inactive | Activity (Bacillus subtilis): inactive | Activity [1]: -94% | Activity [6]: -74%

CO[C@]12c3c(C)cc(O)c4c(=O)occ(c34)C(=O)[C@H]1[C@]13COC(=O)c4c(O)cc(C)c(c41)C(=O)[C@H]2[C@@H]3OC(C)=O
Activity [2]: -94% | Activity [3]: -74% | Activity (Curvularia lunata): inactive | Activity [4]: inactive | Activity (Escherichia coli): inactive | Activity (Aspergillus flavus): inactive | Activity (Bacillus cereus): inactive | Activity (Citrobacter freundii): inactive | Activity [5]: inactive | Activity (Enterobacter cloacae): inactive | Activity (Chaetomium): inactive | Activity (Bacillus subtilis): inactive | Activity [1]: -95% | Activity [6]: -67%

CC[C@@H]1CCc2occ(CO)c(=O)c2[C@H]1O [DIPLODIOL]
Activity [2]: -75% | Activity [3]: -73% | Activity (Curvularia lunata): inactive | Activity [4]: inactive | Activity (Escherichia coli): inactive | Activity (Aspergillus flavus): inactive | Activity (Bacillus cereus): inactive | Activity (Citrobacter freundii): inactive | Activity [5]: inactive | Activity (Enterobacter cloacae): inactive | Activity (Chaetomium): inactive | Activity (Bacillus subtilis): inactive | Activity [1]: -96.3% | Activity [6]: -70%

CCCCCc1cccc(=O)o1
Activity [1]: -35.5%

C[C@H]1CCC[C@H](C[C@H]2Cc3cc(O)cc(O)c3C(=O)O2)O1 [CLADOSPORIN]
Activity [2]: -90% | Activity [3]: -16% | Activity [1]: -79% | Activity [6]: -14%

C[C@@H]1C[C@H]2O[C@@H]2/C=C\C=C\C(=O)Cc2c(Cl)c(O)cc(O)c2C(=O)O1 [RADICICOL]
Activity [2]: -100% | Activity [3]: -94% | Activity [1]: -75% | Activity [6]: -76%

CC(=C\C(=O)O)/C=C(\C)C[C@H](C)CCCC[C@H]1OC(=O)[C@@H]1CO [ANTIBIOTIC 1233A]
Activity [1]: -39%

C[C@H]1CCC/C=C/[C@@H]2C[C@H](O)C[C@H]2[C@H](O)/C=C/C(=O)O1 [BREFELDIN A]
Activity [1]: -62%

CCCCCC[C@@H](O)[C@H]1CCC2=C(O1)[C@@H](O)CCC2=O [KONINGININ B]
Activity [1]: 1%

O=C1C=C2C(=CCOC2O)O1 (centres undefined) [PATULIN]
Activity [1]: -66%

CC1=C2C(=CO[C@H](C)[C@H]2C)C(O)=C(C(=O)O)C1=O [CITRININ]
Activity [1]: -26%

C[C@@H]1C/C=C/CCCCC(=O)Cc2cc(O)cc(O)c2C(=O)O1 [MONOCILLIN IV]
Activity [2]: -75% | Activity [3]: -63% | Activity (Curvularia lunata): inactive | Activity [4]: inactive | Activity (Escherichia coli): inactive | Activity (Aspergillus flavus): inactive | Activity (Bacillus cereus): inactive | Activity (Citrobacter freundii): inactive | Activity [5]: inactive | Activity (Enterobacter cloacae): inactive | Activity (Chaetomium): inactive | Activity (Bacillus subtilis): inactive | Activity [1]: -78% | Activity [6]: -8%

O=C(O)/C=C/CCCCCCCCC(=O)O [TRAUMATIC ACID]
Activity [1]: 28.4%

CC(C)=C1Oc2c(ccc3c2COC(C)(O)C3)C1=O (centres undefined) [PERGILLIN]
Activity [1]: -68.9%

Source: ChEMBL document CHEMBL1148037, “Effect of Fungal Natural Products in an Agrobacterium tumefaciens Potato Disc Assay” (1994)
